Results as given in patent US9556192B2, “Functionalized 9-bromo-camptothecin derivatives” (NERVIANO MEDICAL SCIENCES S.R.L., priority 2012, dated 2017).
Structures can show the parent of a compound that is named as a salt. Where two headings read alike, the source gives them in different places.

What was measured:
[1] = system: A2780 human ovarian cancer cells; assay: In vitro cell proliferation assay (CellTiter-Glo); assay type: cell-based; details: 72 h
Procedure: In Vitro Cell Proliferation Assay
A2780 human ovarian and MCF7 human breast cancer cells (1250 cells/well) were seeded in white 384 well-plates in complete medium (RPMI1640 or EMEM plus 10% Fetal bovine serum) and treated with compounds dissolved in 0.1% DMSO, 24 h after seeding. The cells were incubated at 37° C. and 5% CO2 and after 72 h the plates were processed using CellTiter-Glo assay (Promega) following the manufacturers instructions.
CellTiter-Glo is a homogenous method based on the quantification of the ATP present, an indicator of metabolically active cells. ATP is quantified using a system based on luciferase and D-luciferin resulting into light generation. The luminescent signal is proportional to the number of cells present in culture.
Briefly, 25 μL/well of reagent solution are added to each well and after 5 min shaking microplates are read by a luminometer. The luminescent signal is proportional to the number of cells present in culture.

cathepsin B = cathepsin B (Homo sapiens, UniProt P07858); assay: Release of a drug moiety from conjugate in presence of cathepsin B; assay type: biochemical; details: 0.2 units cathepsin B, sodium acetate buffer pH 5.5, 1 mM Cys, 2 h at 40° C.
Procedure: As an example, that is not intended to limit the scope of the invention, the release of a compound of formula (I) from the conjugate was performed in presence of cathepsin as reported below.
(§1) The conjugate A1 was incubated with 0.2 units of cathepsin B in sodium acetate buffer pH 5.5 and 1 mM Cys for 2 h at 40° C. Then pH was adjusted to 7.4 by addition of Tris-HCl buffer and maintained at room temperature for 1 h.

[2] = Elimination of self-immolative group at pH 7.4 (HPLC/MS); assay type: physicochemical; details: pH 7.4 (Tris-HCl buffer), room temperature, 1 h
Procedure: as §1

[3] = read-out: IC50 value in A2780 human ovarian cancer cells

Row | Structure (SMILES) | IC50 ([1]; read-out: A2780 (IC50 nM)) | IC50 [1, 3] | Cleavage of the Z peptidic linker of the conjugate with release of Comp. 11 (cathepsin B) | Release of 9-bromo-camptothecin by elimination of the self-immolative group W [2]
1 | CC[C@@]1(O)C(=O)OCc2c1cc1n(c2=O)Cc2cc3c(Br)cccc3nc2-1 [9-bromo-camptothecin] | 1.62 nM | – | – | –
2 | CC[C@@]1(OC(=O)CNC(=O)[C@H](CC(C)C)NC(=O)[C@@H](N)Cc2ccccc2)C(=O)OCc2c1cc1n(c2=O)Cc2cc3c(Br)cccc3nc2-1 [Comp. 2, (4S)-10-bromo-4-ethyl-3,14-dioxo-3,4,12,14-tetrahydro-1H-pyrano[3′,4′:6,7]indolizino[1,2-b]quinolin-4-yl L -phenylalanyl-L-leucylglycinate] | 1.56 nM | < 10 nM | – | –
3 | CC[C@@]1(OC(=O)CN)C(=O)OCc2c1cc1n(c2=O)Cc2cc3c(Br)cccc3nc2-1 [Comp. 1, (4S)-10-bromo-4-ethyl-3,14-dioxo-3,4,12,14-tetrahydro-1H-pyrano[3′,4′6,7]indolizino[1,2-b]quinolin-4-yl glycinate hydrochloride] | 0.97 nM | < 10 nM | – | –
4 | CC[C@@]1(OC(=O)CC2(CNC(=O)[C@@H](CCCNC(N)=O)NC(=O)[C@@H](NC(=O)CCCCCN3C(=O)CC(N[C@H](C=O)CS)C3=O)C(C)C)CCCCC2)C(=O)OCc2c1cc1n(c2=O)Cc2cc3c(Br)cccc3nc2-1 (stereo partly shown) [conjugate A1] | – | – | Partial disappearance | –
5 | CC[C@@]1(OC(=O)CC2(CN)CCCCC2)C(=O)OCc2c1cc1n(c2=O)Cc2cc3c(Br)cccc3nc2-1.Cl [Comp. 11] | – | – | – | elimination of the self-immolative group W
